Laboratory results from patent US20220364069A1, “METHOD FOR THE PRODUCTION OF AN ENZYMATIC COMPOSITION COMPRISING A RECOMBINANT ENDOPEPTIDASE” (NEMYSIS LIMITED, priority 2019, published 2022).
In brackets after ≈: the same amount, converted by molar mass. Read-outs that look alike come from different tables or passages of the source.

Legend:
Escherichia coli L47 = assay: Broth microdilution antimicrobial assay, E. coli; type: cell-based; details: E. coli L47, 18 h, 35° C.; for MIC: Escherichia coli, read-out: MIC (Minimal Inhibitory Concentration)
From the text: (§1) As known, S. lividans TK24 could potentially produce actinorhodin (ACT), undecylprodigiosin (UDP), and calcium-dependent antibiotic (CDA), especially when grown under fermentation conditions. Broth microdilution assay, standardized by the Clinical and Laboratory Standards Institute (CLSI) was then used to evaluate antibiotic presence in samples deriving from enzyme preparations obtained by the method of the invention. Antimicrobial activity has been tested against test microorganisms (test-mo), known to not show any antibiotic resistance: Staphylococcus aureus ATCC6538 (representative of Gram+); Escherichia coli L47 (Lepetit collection; representative of Gram-); Candida albicans L145 (Lepetit collection; representative of Yeast).
(§2) A two-fold serial dilution of the samples to be tested was performed in sterile 96-well microplates, then inoculated with the test-mo in their respective medium (100 μl/well final volume); each determination was carried out in triplicate. The inoculated microplates were then incubated for 18, 20 and 24 h for E. coli, S. aureus and C. albicans, respectively, at 35° C. Antimicrobial activity of samples of unknown “antimicrobial” concentration was measured as endpoint, that is the highest dilution that inhibits the test strain growth; it was determined by visual examination of the microplates with the aid of a magnifying mirror.

Candida albicans L145 = assay: Broth microdilution antimicrobial assay, C. albicans; type: cell-based; details: for MIC: Candida albicans, L145, read-out: MIC (Minimal Inhibitory Concentration)
From the text: as §1, §2

[1] = test system: Staphylococcus aureus ATCC6538; assay: Broth microdilution antimicrobial assay, S. aureus; type: cell-based; details: S. aureus ATCC6538, 20 h, 35° C.; for MIC: Staphylococcus aureus, read-out: MIC (Minimal Inhibitory Concentration)
From the text: as §1, §2

gliadin = assay: Gliadin digestion by native E40 fraction (SDS-PAGE); type: biochemical; details: 2 hours, 37° C., pH 3
Method: (§3) FIG. 1. Activity of Actinoallomurus A8 culture supernatant fraction containing the native E40. A: relative activity toward the substrate sucAlaAlaProPhe-AMC (sucAAPF-AMC) at various pH values (the optimum —100% activity— is at pH 5). B: Gliadin digestion after 2 hours of incubation at 37° C., pH 3. Gel stained with Coomassie R250 brilliant blue; Lane 1: gliadin alone, lane 2: gliadin+E40-containing supernatant fraction.
Native E40 of sequence SEQ ID NO: 3 was purified from the supernatant fraction of an Actinoallomurus A8 culture isolated from soil (native E40) as described in WO2013083338.

[2] = Activity of culture supernatant toward sucAAPF-AMC at various pH; type: biochemical
Method: as §3
FIG. 3. Recombinant E40 (SEQ ID NO: 2) obtained by S. lividans TK24/p1J86/e40 submerged fermentation, at flask scale (panels A-C) or in a 15 L bioreactor, followed by purification (panels D-E). A: activity toward the substrate sucAAPF-AMC at pH 5 of supernatant samples taken at different fermentation times (♦72, ▴96, ●168, ▪192 fermentation hours) from the producing S. lividans TK24/p1J86/E40 (E40, continuous line) and absence of activity of supernatant samples taken from the pIJ86-empty control strain (ctr, dashed lines). Activity is shown as relative fluorescent units (rfu, Y axis) produced in time (X axis). […] D: profile of an enzyme preparation comprising recombinant E40 purified from the 15 L fermentation; lane 1: final enzyme preparation comprising recombinant E40 stained with Coomassie (the arrow indicates recombinant E40), lane 2: zymography as in C, lane 3: band of gelatin hydrolysis after 2 hours of digestion at 37° C. and pH 5, visualized after Coomassie staining of the gelatin substrate. E: relative activity (%) of recombinant E40 in the purified enzyme preparation at different pH values (from 2 to 8), evaluated with the substrate suc-Ala-Ala-Pro-Phe-pNA.
As well as native E40, recombinant E40 was active in the pH range 3-6, with an optimum at pH 5 (FIG. 3, panel B).

## C[C@@H]1[C@H](O)[C@@H](C)/C=C/C=C/C=C/C=C/C=C/C=C/C=C/[C@H](O[C@@H]2O[C@H](C)[C@@H](O)[C@H](N)[C@@H]2O)C[C@@H]2O[C@](O)(C[C@@H](O)C[C@@H](O)[C@H](O)CC[C@@H](O)C[C@@H](O)CC(=O)O[C@H]1C)C[C@H](O)[C@H]2C(=O)O [Amphotericin B, amphotericin B]
Escherichia coli L47
  MIC (Minimal Inhibitory Concentration): >128 µg/mL
Candida albicans L145; C. albicans L14, 24 h, 35° C.
  MIC (Minimal Inhibitory Concentration): 0.5 µg/mL (≈ 0.541 µM)
[1]
  MIC (Minimal Inhibitory Concentration): >128 µg/mL

## CN[C@@H]1[C@@H](O[C@H]2O[C@H](CO)[C@@H](N)[C@H](O)[C@H]2O)OC2C[C@@H](N)[C@@H](O[C@H]3[C@H](O)[C@@H](O)[C@H](N)C[C@@H]3N)OC2[C@@H]1O (stereo partly shown) [Apramycin]
Escherichia coli L47
  MIC: 8 µg/mL (≈ 14.8 µM)
Candida albicans L145; C. albicans L14, 24 h, 35° C.
  MIC: > 128 µg/mL
[1]
  MIC: 8 µg/mL (≈ 14.8 µM)

## CCCCCCCCCC(=O)N[C@@H](Cc1c[nH]c2ccccc12)C(=O)N[C@H](CC(N)=O)C(=O)N[C@@H](CC(=O)O)C(=O)N[C@@H]1C(=O)NCC(=O)N[C@@H](CCCN)C(=O)N[C@@H](CC(=O)O)C(=O)N[C@H](C)C(=O)N[C@@H](CC(=O)O)C(=O)NCC(=O)N[C@H](CO)C(=O)N[C@@H]([C@H](C)CC(=O)O)C(=O)N[C@@H](CC(=O)c2ccccc2N)C(=O)O[C@@H]1C [Daptomycin, daptomycin]
Escherichia coli L47
  MIC: > 128 µg/mL
Candida albicans L145; C. albicans L14, 24 h, 35° C.
  MIC: > 128 µg/mL
[1]
  MIC: 0.5 µg/mL (≈ 0.309 µM)

## c1c[nH]cn1 [Imidazole, imidazole]
Candida albicans L145; C. albicans L14
  MIC: 3.9 mM

B1: Native E40: E40 of SEQ ID NO: 3 purified from supernatant fraction of an Actinoallomurus A8 culture as in WO2013083338 (protein)
chain: MSRRVTGTILGGLILAMVPFLSTAANAAPQAAPASVSHPFHHSCATVKPGRASCNALVRSDIAQSAATLAHQAAAPSGLSPANLQSAYKLPSSTAGSGQTVAIVDAYDAPTAEADLNVYRSQFGLGACTTANGCFKKVDQNGGTSYPRKDGGWAQEISLDLDMVSAVCPNCKIVLVEAKTNSFANLGTAENTAASLANVISNSYGGSDASDASYGSYYNHPGKAITVSSGDAGYGVEYPASSHYVTAVGGTSLRTASTSRGWSETAWSGAGSGCSAYNTALSGQSGLTGCSRRAVADVSAVADPATGVAVYDSTAYQGQSGWMVFGGTSVAAPIIGGVYGLAANAASIDNNYPYAHTSSLFDVTSGSNGTCTTTKWCTAGTGWDGPTGLGTPNGTGAF
modifications: Actinoallomurus
gliadin
  gliadin digestion: completely digested
[2]; native E40
  pH range of marked glutenase activity: 3-6
[2]; native E40-containing Actinoallomurus A8 supernatant fraction, sucAAPF-AMC
  pH optimum of relative activity: 5
